Counter-ions that a name gives are not always drawn.
How the values were obtained:
[1] = stability of the dioxetane in solution or after lyophilization, followed by analytical HPLC; type: physicochemical
Method: Peak fractions from FIG. 3C were combined, lyophilized, then analyzed by analytical HPLC on a reversed phase PLRP-S analytical column with a gradient of acetonitrile in 0.1% NaHCO3 buffer, pH 8.6, as the mobile phase.
The AMPPD fraction from FIG. 4 was collected, freeze-dried, then fractionated on an analytical size column of Dynamax C-18 using as the mobile phase a gradient of acetonitrile in 0.1% ammonium acetate, pH 7.0.
The 6 minute AMPPD peak from FIG. 4, which eluted with 31% acetonitrile in 0.1% ammonium acetate buffer, pH 7.0, was stored overnight in this solution without concentration, then chromatographed by HPLC on an analytical Dynamax C-18 column in a gradient of acetonitrile in 0.1% ammonium acetate buffer, pH 7.0 (FIG. 6).
When, however, AMPPD in the 6-minute peak from preparative HPLC (FIG. 4) was stored in the presence of the ammonium acetate column effluent for long periods of time at 4° C.

alkaline phosphatase = alkaline phosphatase chemiluminescence assay (light emission, Turner 20E Luminometer; sensitivity plot); type: biochemical; conditions: for light emission upon reaction with alkaline phosphatase: peaks collected from preparative HPLC (FIG. 1), lyophilized, tested as substrate, FIG. 2
Excerpt: Another such method involves testing the 1,2-dioxetane derivative as a substrate for an enzyme in a chemiluminescence assay (see for example, Example 2 infra), and comparing its behavior to that of an authentic sample of highly pure substrate in the same assay. The light intensity produced per unit amount of the substrate is directly proportional to the degree of purity of the substrate, when compared to the light intensity produced by the highly pure sample. When the light intensity produced from pure and impure substrate is plotted as a function of the molar concentration of the biochemical analyte, a family of parallel sigmoid curves is produced; this is called a sensitivity plot. The sensitivity curve for an impure sample will be shifted to the right of the curve for a pure sample; that is, the assay is less sensitive when using the impure sample. The greater the degree of impurity, the greater the shift of the sensitivity curve to the right. Purification of the crude reaction products of the chemical syntheses of the chemiluminescent, water-soluble 1,2 dioxetane derivatives by the methods of this invention will increase the sensitivity of the assay using the dioxetane product by at least 2-fold, preferably about 10-fold (see Example 6, FIG. 9).
The breakdown product and the AMPPD from FIG. 1 were collected, dried by lyophilization, then tested as a substrate for alkaline phosphatase in a chemiluminescence assay. The details of this assay are provided in copending U S. Pat. Application Ser. No. 889,823, which is incorporated herein by reference to the extent that it discloses assay conditions for alkaline phosphatase. Light emission was determined in a Turner 20E Luminometer.
The alkaline phosphatase chemiluminescent assay was applied to a relatively crude sample of AMPPD from Example 4, FIG. 5, and to an HPLC purified sample of AMPPD from Example 3, FIG. 3D. Light intensity produced in the chemiluminescent assay was plotted as a function of the molar concentration of alkaline phosphatase in the assay mixture (FIG. 9).

Row | SMILES | stability on brief (overnight) storage in ammonium acetate buffer ([1]; 31% acetonitrile in 0.1% ammonium acetate buffer, pH 7.0, without concentration, FIG. 6) | stability in water ([1]; desalted and non-desalted preparations, analytical HPLC on PLRP-S, FIG. 3D) | stability after lyophilization in the presence of ammonium ions ([1]; freeze-dried from 0.1% ammonium acetate buffer, pH 7.0, analytical HPLC on Dynamax C-18, FIG. 5) | stability on long-term storage in ammonium acetate column effluent ([1]; long periods of time at 4° C. in the dark, analytical HPLC on Dynamax C18, FIG. 7) | sensitivity of the chemiluminescent assay relative to crude AMPPD (alkaline phosphatase; HPLC purified sample (FIG. 3D) vs crude sample (FIG. 5), at all concentrations of alkaline phosphatase, FIG. 9) | light emission upon reaction with alkaline phosphatase (alkaline phosphatase) | lowest concentration of alkaline phosphatase that could be detected (alkaline phosphatase; with purified AMPPD as substrate)
1 | COC1(c2cccc(OP(=O)(O)O)c2)OOC12C1CC3CC(C1)CC2C3 (centres unmarked) [AMPPD, 3-(2'-spiroadamantane)-4-methoxy-4-(3"-phosphoryloxy)phenyl-1,2-dioxetane disodium salt] | did not lead to significant breakdown | stable for long periods | unstable | increased breakdown | at least an order of magnitude greater | typical of AMPPD | about 10^-15 M
2 | COC(=O)c1cccc(OP(=O)(O)O)c1 [Breakdown Product] | – | – | – | – | – | no light emission | –

From US4931569A, “Purification of stable water-soluble dioxetanes” (Tropix, Inc., priority 1988, dated 1990)
